Test results as given in the NIST ThermoML archive (doi:10.1016/j.jct.2004.12.008).
± gives the expanded uncertainty stated by the source.

Assay: xn = mol fraction of the nth substance listed
Details: 101 kPa, Liquid

O=[N+]([O-])c1ccccc1 [nitrobenzene] + CCc1ccccc1
Details	mass density [kg/m3]
293.15 K, x2 = 0	1202.95 ± 18
293.15 K, x2 = 0.0478	1184.56 ± 17
293.15 K, x2 = 0.1275	1154.51 ± 15
293.15 K, x2 = 0.1842	1133.58 ± 14
293.15 K, x2 = 0.2576	1107.04 ± 12
293.15 K, x2 = 0.3238	1083.6 ± 11
293.15 K, x2 = 0.4023	1056.42 ± 8.8
293.15 K, x2 = 0.4578	1037.57 ± 7.6
293.15 K, x2 = 0.5139	1018.83 ± 6.4
293.15 K, x2 = 0.5813	996.7 ± 5.5
293.15 K, x2 = 0.6423	977.03 ± 6.7
293.15 K, x2 = 0.6931	960.9 ± 7.8
293.15 K, x2 = 0.7592	940.24 ± 9.1
293.15 K, x2 = 0.8343	917.18 ± 11
293.15 K, x2 = 0.8824	902.65 ± 12
293.15 K, x2 = 0.9587	879.94 ± 13
303.15 K, x2 = 0	1193.56 ± 18
303.15 K, x2 = 0.054	1172.67 ± 16
303.15 K, x2 = 0.1213	1147.16 ± 15
303.15 K, x2 = 0.1983	1118.67 ± 13
303.15 K, x2 = 0.2489	1100.34 ± 12
303.15 K, x2 = 0.3138	1077.25 ± 10
303.15 K, x2 = 0.3854	1052.32 ± 8.6
303.15 K, x2 = 0.4428	1032.74 ± 7.3
303.15 K, x2 = 0.5098	1010.3 ± 5.9
303.15 K, x2 = 0.5721	989.85 ± 5.9
303.15 K, x2 = 0.6219	973.76 ± 6.9
303.15 K, x2 = 0.6839	954.06 ± 8.2
303.15 K, x2 = 0.7429	935.62 ± 9.4
303.15 K, x2 = 0.8013	917.67 ± 11
303.15 K, x2 = 0.8632	898.94 ± 12
303.15 K, x2 = 0.9328	878.24 ± 13
313.15 K, x2 = 0	1183.37 ± 17
313.15 K, x2 = 0.0538	1162.71 ± 16
313.15 K, x2 = 0.1387	1130.89 ± 14
313.15 K, x2 = 0.1932	1110.93 ± 12
313.15 K, x2 = 0.2378	1094.87 ± 11
313.15 K, x2 = 0.2947	1074.72 ± 10
313.15 K, x2 = 0.3571	1053.04 ± 8.6
313.15 K, x2 = 0.4139	1033.68 ± 7.4
313.15 K, x2 = 0.4917	1007.73 ± 5.7
313.15 K, x2 = 0.5523	987.93 ± 6
313.15 K, x2 = 0.6139	968.18 ± 7.3
313.15 K, x2 = 0.6731	949.53 ± 8.5
313.15 K, x2 = 0.7248	933.5 ± 9.6
313.15 K, x2 = 0.7932	912.63 ± 11
313.15 K, x2 = 0.8536	894.54 ± 12
313.15 K, x2 = 0.9248	873.58 ± 13
323.15 K, x2 = 0	1172.38 ± 16
323.15 K, x2 = 0.0617	1149.22 ± 15
323.15 K, x2 = 0.1482	1117.58 ± 13
323.15 K, x2 = 0.2213	1091.54 ± 11
323.15 K, x2 = 0.2787	1071.53 ± 9.8
323.15 K, x2 = 0.3234	1056.2 ± 8.8
323.15 K, x2 = 0.3781	1037.74 ± 7.6
323.15 K, x2 = 0.4344	1019.07 ± 6.4
323.15 K, x2 = 0.4822	1003.47 ± 5.4
323.15 K, x2 = 0.5339	986.86 ± 6.1
323.15 K, x2 = 0.592	968.49 ± 7.3
323.15 K, x2 = 0.6739	943.12 ± 8.9
323.15 K, x2 = 0.7429	922.2 ± 10
323.15 K, x2 = 0.8137	901.15 ± 12
323.15 K, x2 = 0.8735	883.68 ± 13
323.15 K, x2 = 0.9572	859.66 ± 14
333.15 K, x2 = 0	1160.59 ± 16
333.15 K, x2 = 0.0439	1144.65 ± 14
333.15 K, x2 = 0.1249	1115.84 ± 13
333.15 K, x2 = 0.1892	1093.51 ± 11
333.15 K, x2 = 0.2599	1069.48 ± 9.7
333.15 K, x2 = 0.3389	1043.25 ± 8
333.15 K, x2 = 0.4042	1022.06 ± 6.6
333.15 K, x2 = 0.4672	1002.01 ± 5.3
333.15 K, x2 = 0.5243	984.15 ± 6.2
333.15 K, x2 = 0.5902	963.91 ± 7.6
333.15 K, x2 = 0.6645	941.54 ± 9
333.15 K, x2 = 0.7309	921.93 ± 10
333.15 K, x2 = 0.8021	901.28 ± 12
333.15 K, x2 = 0.8623	884.12 ± 13
333.15 K, x2 = 0.8932	875.4 ± 13
333.15 K, x2 = 0.9621	856.21 ± 15
343.15 K, x2 = 0	1148 ± 15
343.15 K, x2 = 0.0535	1129.57 ± 14
343.15 K, x2 = 0.1122	1109.7 ± 12
343.15 K, x2 = 0.1834	1086.08 ± 11
343.15 K, x2 = 0.2478	1065.16 ± 9.4
343.15 K, x2 = 0.3044	1047.11 ± 8.2
343.15 K, x2 = 0.3782	1024 ± 6.8
343.15 K, x2 = 0.4519	1001.42 ± 5.3
343.15 K, x2 = 0.513	983.04 ± 6.3
343.15 K, x2 = 0.5801	963.22 ± 7.6
343.15 K, x2 = 0.6529	942.11 ± 9
343.15 K, x2 = 0.7238	921.93 ± 10
343.15 K, x2 = 0.7932	902.5 ± 12
343.15 K, x2 = 0.852	886.31 ± 13
343.15 K, x2 = 0.8932	875.09 ± 13
343.15 K, x2 = 0.9423	861.85 ± 14
353.15 K, x2 = 0	1134.61 ± 14
353.15 K, x2 = 0.0723	1111.4 ± 12
353.15 K, x2 = 0.1298	1093.3 ± 11
353.15 K, x2 = 0.1984	1072.07 ± 9.8
353.15 K, x2 = 0.2584	1053.83 ± 8.7
353.15 K, x2 = 0.3133	1037.4 ± 7.6
353.15 K, x2 = 0.3891	1015.12 ± 6.2
353.15 K, x2 = 0.4501	997.51 ± 5.4
353.15 K, x2 = 0.524	976.53 ± 6.8
353.15 K, x2 = 0.5818	960.38 ± 7.8
353.15 K, x2 = 0.663	938.08 ± 9.3
353.15 K, x2 = 0.7483	915.1 ± 11
353.15 K, x2 = 0.7964	902.32 ± 12
353.15 K, x2 = 0.8423	890.26 ± 12
353.15 K, x2 = 0.8893	878.02 ± 13
353.15 K, x2 = 0.9529	861.65 ± 14
